# Test results: patent US20060217395A1, “Combinations of paroxetine and 4- (s) - (4-acetyl-piperazin-1-yl) -2- (r)- (4-fluoro-2-methyl- phenyl -piperidine-1-carboxylic acid [1- (r) (3,5-bis-trifluoromethyl-phenyl) -ethyl] methylamide for treatment of depression and / or anxiety” (GLAXO GROUP LIMITED, priority 2003, published 2006)
# Structures can show the parent of a compound that is named as a salt.
# System: mongolian gerbils
# Assay: gerbil social interaction model (social stress assay)
# Format: in vivo
# Details: one hour after administration
# Description: Paroxetine hydrochloride hemihydrate (0.03 mg/kg p.o of the paroxetine measured as the free base), 4-(S)-(4-Acetyl-piperazin-1-yl)-2-(R)-(4-fluoro-2-methyl-phenyl)-piperidine-1-carboxylic acid [1-(R)-(3,5-bis-trifluoromethyl-phenyl)-ethyl]-methylamide methansulphonate (hereinafter compound A) (0.03 mg/kg i.p of the compound A measured as the free base) and a combination of paroxetine (0.03 mg/kg p.o. of the paroxetine measured as the free base) and compound A (0.03 mg/kg i.p. of the compound A measured as the free base) were administered independently in mongolian gerbils to assess the effect on time spent in active social interactions.
# The results obtained one hour after administration, expressed as a percentage variation of the time spent in active social interactions by each animal in respect to the value obtained by treatment of control animals, are summarised in table 1.
SMILES,% variation of the time spent in active social interactions in respect to control animals (0.03 mg/kg p.o. (measured as the free base)),% variation of the time spent in active social interactions in respect to control animals (0.03 mg/kg i.p. (measured as the free base))
"Fc1ccc([C@@H]2CCNC[C@H]2COc2ccc3c(c2)OCO3)cc1 [Paroxetine hydrochloride hemihydrate, (−)trans-4-(4′-fluorophenyl)3-(3′-4′-methylenedioxyphenoxymethyl) piperidine]",−2.4%,
"CC(=O)N1CCN([C@H]2CCN(C(=O)N(C)[C@H](C)c3cc(C(F)(F)F)cc(C(F)(F)F)c3)[C@@H](c3ccc(F)cc3C)C2)CC1.CS(=O)(=O)O [Compound A, 4-(S)-(4-Acetyl-piperazin-1-yl)-2-(R)-(4-fluoro-2-methyl-phenyl)-piperidine-1-carboxylic acid [1-(R)-(3,5-bis-trifluoromethyl-phenyl)-ethyl]-methylamide methansulphonate]",,20.7%
